# Laboratory results taken from US3943154A, “Acylamides of beta-cyano-ethenesulfonyl substituted aminoarenes” (Sanitized Incorporated, priority 1973, dated 1976).
# Where two headings read alike, the source gives them in different places.
# Key:
# Format in all cases: cell-based
# [1] = tested on: Bacillus subtilis ATCC 9525; assay: button assay, antibacterial activity; conditions: 24 hours at 37° C; for MIC: Bacillus subtilis, ATCC9525, lowest concentration showing a clear zone of inhibition, read-out: Antibacterial Activity B.subtilis, minimum inhibitory concentration
# Method: (§1) In the test program, the minimum inhibitory concentrations of the respective test compounds against various Gram positive and Gram negative bacteria were determined, employing the "button assay" method. The test organisms utilized were standard cultures of Staphylococcus aureus ATCC 6538 DR, a penicillin resistant Gram positive bacterium; Bacillus subtilis ATCC 9525, a spore-forming Gram positive bacillus; and Salmonella typhosa ATCC 6539, a Gram negative bacterium.
# (§2) In the tests the respective compounds were dissolved in a suitable solvent, usually acetone or dimethylsulfoxide, to give solutions with known concentrations of active material. The highest concentration was ordinarily 1000 ppm (parts per million) [0.1%], and dilutions were made in suitable steps down to 1 ppm. Penicillin test buttons of filter paper having a diameter of 13 mm (socalled "Peniassay" buttons) were added to each solution within a test tube and left submerged for five minutes. They were then removed and left to dry on paper towels under sterile conditions. A laminar flow sterile cabinet equipped with ultraviolet lamps operating under positive air pressure was utilized for this purpose.
# (§3) An 18-24 hour old nutrient broth culture (standard 1.5% nutrient agar) prepared in conventional manner from a slant and having passed through at least three consecutive daily transfers was used for inoculation. Melted and cooled sterile agar (45° C) was inoculated with the respective broth cultures by addition of 20 ml broth per liter of agar. The agar was then dispensed into Petri dishes (20 ml per plate) under sterile conditions and allowed to harden.
# (§4) The test buttons were placed on the surface of the hardened agar and the plates incubated for 24 hours at 37° C. Where, on inspection, a clear zone of inhibition appeared around the button, inhibition of growth was presumed. Where growth touched the button there was no inhibition. For each of the test compounds, the lowest concentration showing a clear zone is reported as the inhibitory concentration in the following table.
# (§5) The button assay and agar incorporation tests were also utilized to determine the corresponding inhibitory concentrations of various control materials, viz., the following well known commercial antimicrobials and fungicides: hexachlorophene, tribromosalicylanilide, trichlorocarbanilide,Captan (N-(trichloromethylthio)4cyclohexene-1,2-dicarboximide) and Zineb (zinc ethylenebis[dithiocarbamate]). The minimum inhibitory concentration of each of the various control materials against the respective organisms is indicated in Table IV below: […]
# [2] = tested on: Salmonella typhosa ATCC 6539; assay: button assay, antibacterial activity; conditions: for MIC: Salmonella enterica, read-out: Antibacterial Activity S.typhosa, minimum inhibitory concentration
# Method: as §1
# as §2, with “The” for “In the tests the respective compounds were dissolved in a suitable solvent, usually acetone or dimethylsulfoxide, to give solutions with known concentrations of active material. The”
# as §3
# as §4, with “table. […]” for “table.”
# [3] = tested on: Staphylococcus aureus ATCC 6538 DR; assay: button assay, antibacterial activity; conditions: for MIC: Staphylococcus aureus, ATCC6538, 24 h, read-out: Antibacterial Activity S.aureus, minimum inhibitory concentration
# Method: as §1, §2, §3
# as §4, with “table. […]” for “table.”
# [4] = tested on: Aspergillus niger ATCC 6257; assay: agar incorporation test, antifungal activity; conditions: lowest concentration showing no growth or sporulation, four days at 28° C; for MIC: Aspergillus niger, ATCC6257, 96 h, read-out: Antifungal Activity A. niger, minimum inhibitory concentration
# Method: The anti-fungal activity of the test compounds was determined employing the "agar incorporation" technique, utilizing spores from Aspergillus niger ATCC 6257 as a representative organism. Test solutions were prepared as described above in acetone or dimethylsulfoxide. A source of carbon agar such as Mycophil Agar was used. The agar was melted and cooled and placed in a constant temperature water bath at 45° C + 3° C. About 13-14 ml of the agar was then poured into a sterile Petri dish, the required amount of test solution to give the desired concentration immediately added thereto, and the dish rotated and swirled by hand to obtain a uniform mixture before the agar hardened.
# The hardened plates were inoculated with the test organism by fishing spores from a 7-14 day old slant with the inocculating needle and spotting the spores on the plates, usually in several places. The inoculated plates were incubated for four days in an incubator maintained at 28° C +2° C and with a relative humidity of 95%+.
# The lowest concentration of each test compound showing no growth or sporulation of the test organism was taken as the minimum inhibitory concentration and is reported in the following tabulation.
# as §5
# [5] = button assay, lowest concentration showing a clear zone of inhibition, 24 hours at 37° C
Compound,MIC [1] [µg/mL],MIC ([2]; 24 h) [µg/mL],MIC [3] [µg/mL],MIC [4] [µg/mL],"Antibacterial Activity B.subtilis, minimum inhibitory concentration ([1]; lowest concentration showing a clear zone of inhibition) [ppm]","Antibacterial Activity S.typhosa, minimum inhibitory concentration [2, 5] [ppm]","Antibacterial Activity S.aureus, minimum inhibitory concentration [3, 5] [ppm]","Antifungal Activity A. niger, minimum inhibitory concentration [4] [ppm]","MIC [2, 5] [µg/mL]"
"CCOC(=O)c1ccc(S(=O)(=O)Nc2ccc(S(=O)(=O)C=CC#N)cc2)cc1 [Example 27, 3-[4-(4-[…])BENZENESULFONYL]ACRYLONITRILE]",20,10,10,100,–,–,–,–,–
"COc1ccc(S(=O)(=O)Nc2ccc(S(=O)(=O)C=CC#N)cc2)cc1 [Example 28, 3-[4-(4-methoxybenzenesulfonamido)benzenesulfonyl] acrylonitrile]",10,5,1,> 1000,–,–,–,–,–
"COc1ccc(S(=O)(=O)Nc2ccc(S(=O)(=O)C=CC#N)cc2)cc1OC [Example 29.1, 3-[4-(3,4-dimethoxybenzenesulfonamido)benzenesulfonyl]acrylonitrile]",10,10,20,300,–,–,–,–,–
"COc1ccc(OC)c(S(=O)(=O)Nc2ccc(S(=O)(=O)C=CC#N)cc2)c1 [Example 29.2, 3-[4-(2,5-dimethoxybenzenesulfonamido)benzenesulfonyl]acrylonitrile]",20,50,20,1000,–,–,–,–,–
"CC(=O)Nc1ccc(S(=O)(=O)Nc2ccc(S(=O)(=O)C=CC#N)cc2)cc1 [Example 30, 3-[4-(4-[…])BENZENESULFONYL]ACRYLONITRILE]",50,50,50,> 1000,–,–,–,–,–
"N#CC=CS(=O)(=O)c1ccc(NC(=O)c2cccc(S(=O)(=O)Nc3ccc(S(=O)(=O)C=CC#N)cc3)c2)cc1 [Example 31, N'-4-(2-cyanoethenesulfonyl)phenylN""-3-(2-cyanoethenesulfonyl)phenylsulfamoylbenzamide]",20,20,20,100,–,–,–,–,–
"N#CC=CS(=O)(=O)c1ccc(NS(=O)(=O)c2ccc(C3=CC3(Cl)Cl)cc2)cc1 [Example 32, 3-[4-(4-dichlorocarbostyrenesulfonamido)benzenesulfonyl]acrylonitrile]",5,5,5,1000,–,–,–,–,–
"N#CC=CS(=O)(=O)c1ccc(NS(=O)(=O)c2cccc(S(=O)(=O)Nc3ccc(S(=O)(=O)C=CC#N)cc3)c2)cc1 [Example 33, N.N'-bis-[4-(2-cyanoethenesulfonyl)phenyl]-1,3-phenylenesulfonamide]",10000,100,300,> 1000,–,–,–,–,–
"N#CC=CS(=O)(=O)c1ccc(NS(=O)(=O)c2ccc(Oc3ccc(S(=O)(=O)Nc4ccc(S(=O)(=O)C=CC#N)cc4)cc3)cc2)cc1 [Example 34, 4,4'-N,N'-bis[4-(2-cyanoethenesulfonyl)-phenylsulfamoyl]diphenyl ether]",100,50,100,> 1000,–,–,–,–,–
"N#CC=CS(=O)(=O)c1ccc(NS(=O)(=O)c2ccc3ccccc3c2)cc1 [Example 35, 3-[4-(2-naphthalenesulfonamido)benzenesulfonyl]acrylonitrile]",5,5,10,> 1000,–,–,–,–,–
"CC(=O)Nc1nnc(S(=O)(=O)Nc2ccc(S(=O)(=O)C=CC#N)cc2)s1 [Example 38, 3-[4-(2-acetamido-1,3,4-thiadiazole-5-sulfonamido)benzenesulfonyl]acrylonitrile]",50,100,500,1000,–,–,–,–,–
"N#CC=CS(=O)(=O)c1ccc(NSC(Cl)(Cl)Cl)cc1 [Example 42, 3-(4-trichlorosulfenamidobenzenesulfonyl)acrylonitrile]",20,20,20,1000,–,–,–,–,–
"N#CC=CS(=O)(=O)c1ccc(NSc2ccc([N+](=O)[O-])cc2)cc1 [Example 43, 3-[4-(4-nitrobenzenesulfenamido)benzenesulfonyl]acrylonitrile]",5,10,5,300,–,–,–,–,–
"N#CC=CS(=O)(=O)c1ccc(N=S=O)cc1 [Example 44, 3-(4-sulfinylimidobenzenesulfonyl)acrylonitrile]",10,10,20,300,–,–,–,–,–
"N#CC=CS(=O)(=O)c1ccc(NP(=O)(Nc2ccc(S(=O)(=O)C=CC#N)cc2)Nc2ccc(S(=O)(=O)C=CC#N)cc2)cc1 [Example 45, TRIS-N,N', N""-4-(2-CYANOETHENESULFONYL)PHENYL PHOSPHORAMIDE]",5,50,50,300,–,–,–,–,–
"CN(C)P(=O)(Nc1ccc(S(=O)(=O)C=CC#N)cc1)N(C)C [Example 51, bis-dimethylamido-4-(2-cyanoethenesulfonyl)anilidophosphine oxide]",20,10,20,100,–,–,–,–,–
"N#CC=CS(=O)(=O)c1ccc(NP(=O)(Nc2ccc(S(=O)(=O)C=CC#N)cc2)N(CCCl)CCCl)cc1 [Example 52, di-(2-chloroethyl)amido-di-4-(2-cyanoethenesulfonylanilido)phosphine oxide]",–,–,–,–,10,10,10,100,–
"N#CC=CS(=O)(=O)c1ccc(NP(=O)(OCC(Br)CBr)OCC(Br)CBr)cc1 (stereo not shown) [Example 56, 0,0-bis(2,3-dibromopropyl)-N-4-(2-cyanoethenesulfonyl)phenyl phosphoramide]",10,–,10,100,–,–,–,–,10
"N#CC=CS(=O)(=O)c1ccc(NP(=O)(Nc2ccc(S(=O)(=O)C=CC#N)cc2)c2ccccc2)cc1 [Example 58, phenyl-di-[4-(2-cyanoethenesulfonyl)anilido]phosphine oxide]",10,10,20,100,–,–,–,–,–
"N#CC=CS(=O)(=O)c1ccc(NP(=S)(Nc2ccc(S(=O)(=O)C=CC#N)cc2)c2ccccc2)cc1 [Example 59, PHENYL-DI-[4-(2-CYANOETHENESULFONYL)ANILIDO]PHOSPHINE SULFIDE]",50,–,50,500,–,–,–,–,50
"S=C([S-])NCCNC(=S)[S-].[Zn+2] [Zineb, zinc ethylenebis[dithiocarbamate], reference compound]",300,–,300,> 1000,–,–,–,–,> 10000
"Oc1c(Cl)cc(Cl)c(Cl)c1Cc1c(O)c(Cl)cc(Cl)c1Cl [hexachlorophene, reference compound]",5,–,5,> 1000,–,–,–,–,20
